Source: PubChem BioAssay (NCI)
“And” between values parts separate entries of the source, which are not always exact repeats. Equal values may be shown once.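 Five concentrations, 48 hours, 96-well plates. GI50 marks 50% less growth. TGI denotes the concentration required for complete inhibition of growth.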

What was measured:
Assay in all cases: NCI tumour cell line growth inhibition, 48 h
KM12 colon = system: KM12 colon
NCI-H226 lung = system: NCI-H226 lung
SF-295 CNS = system: SF-295 CNS
SW-620 colon = system: SW-620 colon
SNB-19 CNS = system: SNB-19 CNS
UACC-257 melanoma = system: UACC-257 melanoma
SK-MEL-2 melanoma = system: SK-MEL-2 melanoma
UACC-62 melanoma = system: UACC-62 melanoma
HOP-62 NSCLC = system: HOP-62 NSCLC

Compound | GI50 (KM12 colon) | TGI (KM12 colon) | GI50 (NCI-H226 lung) | TGI (NCI-H226 lung) | GI50 (SF-295 CNS) | TGI (SF-295 CNS) | GI50 (SW-620 colon) | TGI (SW-620 colon) | GI50 (SNB-19 CNS) | TGI (SNB-19 CNS) | GI50 (UACC-257 melanoma) | TGI (UACC-257 melanoma) | GI50 (SK-MEL-2 melanoma) | TGI (SK-MEL-2 melanoma) | GI50 (UACC-62 melanoma) | TGI (UACC-62 melanoma) | TGI (HOP-62 NSCLC) | GI50 (HOP-62 NSCLC)
Clc1ccc([O][In]([O]c2ccc(Cl)cn2)[O]c2ccc(Cl)cn2)nc1 | > 100 µM | > 100 µM | > 100 µM | > 100 µM | 25.2 µM | 47.5 µM | > 100 µM | > 100 µM | > 100 µM | > 100 µM | > 100 µM | > 100 µM | > 100 µM | > 100 µM | > 100 µM | > 100 µM | – | –
Fc1cccc(Cl)c1C1SCc2nc3ccccc3n21 (stereo unspecified) | – | 59.5 µM | – | > 100 µM | – | 95.2 µM | – | > 100 µM | – | > 100 µM | – | 72.7 µM | – | 51 µM | – | 37.5 µM | > 100 µM | –
Cc1cc(Cl)ccc1NC(=O)C(=O)Cc1nc2ccc(C(=O)c3ccccc3)cc2[nH]c1=O | – | > 100 µM | – | > 100 µM | – | > 100 µM | – | > 100 µM | – | > 100 µM | – | > 100 µM | – | > 100 µM | – | > 100 µM | > 100 µM | –
COc1cc(C2c3cc4c(cc3[C@@H](Nc3ccc(N(C)C)cc3)[C@H]3COC(=O)C23)OCO4)cc(OC)c1O (stereo partly specified) | 3.34 µM | 4.49 µM and 14.3 µM | 0.3 µM | – | 0.223 µM | 0.483 µM and 1.47 µM | 1.92 µM | 14 µM and 16.5 µM | 0.441 µM | 11.2 µM and 11.8 µM | 10.2 µM | 11.2 µM and 28.8 µM | 3.58 µM | 9.12 µM and 12 µM | 0.347 µM | 1.53 µM and 2.28 µM | 0.385 µM and 1.23 µM | 0.187 µM
